The record followed here is patent publication US12162867B2, “Inhibitors of RNA helicase DHX9 and uses thereof” (ACCENT THERAPEUTICS, INC., priority 2022, dated 2024).

By EC50 is commonly meant the midpoint of the concentration-response curve.

SMILES strings stand for the structures.

One assay has as its system circBRIP1 in HCT116 cells. Briefly: DHX9 circBRIP1 cellular target engagement TaqMan Multiplex assay (qPCR). The assay is classed as cell-based. The settings on record: Homo sapiens, HCT-116, 72 h, circBRIP1, HCT116 cells, 72 hours; Taqman assay (marked *); read-out: DHX9 Cellular Target Engagement EC50. (In general: Quantitative PCR measures a nucleic acid by following its amplification.)
In the case of `CCCS(=O)(=O)Nc1cc(Cl)cc(NC(=O)c2cc(-c3ncccc3C)cs2)c1` [Example 372], the 50% effective concentration (EC50) came out at 2.12 µM.

As to `Cc1cccnc1-c1csc(C(=O)Nc2cc(Cl)cc(NS(=O)(=O)C(C)C)c2)c1` [Example 373], the half-maximal effective concentration (EC50) is 0.506 µM.

With `Cc1cccnc1-c1csc(C(=O)Nc2cc(Cl)cc(N(C)S(C)(=O)=O)c2)c1` [Example 374], the EC50 is more than 10 µM.

In the case of `Cc1sc(C(=O)Nc2cc(Cl)cc(NS(C)(=O)=O)c2)cc1-c1ncc(C#N)cc1F` [Example 375], the half-maximal effective concentration (EC50) was 0.68 µM.

In the case of `Cc1sc(C(=O)Nc2cc(Cl)cc(NS(C)(=O)=O)c2)cc1-c1c(F)cc(F)cc1F` [Example 378], the concentration for a half-maximal effect (EC50) was 0.361 µM.

For the compound `Cc1cccnc1-c1ccc(C(=O)Nc2cc(Cl)cc(NS(C)(=O)=O)c2)s1` [Example 386], the EC50 was 1.97 µM.

The assay is the same for the next values; noted with them: Homo sapiens, HCT-116, circBRIP1, HCT116 cells; * Taqman assay was used; read-out: DHX9 Cellular Target Engagement EC50.
Take `Cc1cc(C(=O)Nc2cc(Cl)cc(NS(C)(=O)=O)c2)cn1-c1ncc(N2CCCC2=O)cn1` [Example 401]: the concentration for a half-maximal effect (EC50) amounted to 0.135 µM.

With `Cc1cc(C(=O)Nc2cc(Cl)cc(NS(C)(=O)=O)c2)cn1-c1ncc(N2CC(F)(F)C2)cc1Cl` [Example 406], the EC50 came to 0.161 µM.

Regarding `Cc1cc(C(=O)Nc2cc(Cl)cc(NS(C)(=O)=O)c2)cn1-c1ncc(N2CC(F)(F)C2)cc1C(F)(F)F` [Example 407], the EC50 was found to be 0.517 µM.

Take `Cc1cc(C(=O)Nc2cc(Cl)cc(NS(C)(=O)=O)c2)cn1-c1ncc(N2CCC(F)(F)C2)cn1` [Example 409]: the 50% effective concentration (EC50) was found to be 0.177 µM.

For the compound `Cc1cc(C(=O)Nc2cc(Cl)cc(NS(C)(=O)=O)c2)cn1-c1ncc(N2CCC3(C2)CC3(F)F)cc1F` (stereo not drawn) [Example 414], the EC50 was 0.128 µM.

Take `Cc1cc(C(=O)Nc2cc(Cl)cc(NS(C)(=O)=O)c2)cn1-c1ccc(N2CCOC2=O)cn1` [Example 416]: the EC50 was 0.133 µM.

Turning to `Cc1cc(C(=O)Nc2cc(Cl)cc(NS(C)(=O)=O)c2)cn1-c1ncc(N2CCOC2=O)cn1` [Example 417], the EC50 amounted to 0.223 µM.

In the case of `Cc1cc(N2CC(F)(F)C2)cnc1-n1cc(C(=O)Nc2cc(Cl)cc(NS(C)(=O)=O)c2)cc1C` [Example 419], the EC50 worked out at 0.121 µM.

As for `Cc1cc(C(=O)Nc2cc(Cl)cc(NS(C)(=O)=O)c2)cn1-c1ncc(F)cc1F` [Example 444], the half-maximal effective concentration (EC50) was found to be 0.16 µM.

Turning to `CCS(=O)(=O)Nc1cc(Cl)cc(NC(=O)c2cc(C)n(-c3ncc(F)cc3F)c2)c1` [Example 445], the concentration for a half-maximal effect (EC50) was 0.319 µM.

On to `CCS(=O)(=O)Nc1cc(Cl)cc(NC(=O)c2cc(C)n(-c3ncc(F)cc3Cl)c2)c1` [Example 446], for which the concentration for a half-maximal effect (EC50) came out at 0.966 µM.

As for `CS(=O)(=O)Nc1cc(Cl)cc(NC(=O)c2cc(-c3ncc(F)cn3)c(Cl)s2)c1` [Example 450], the concentration for a half-maximal effect (EC50) came out at 0.266 µM.

As to `CC(C)Oc1cnc(-c2csc(C(=O)Nc3cc(Cl)cc(NS(C)(=O)=O)c3)c2)c(F)c1` [Example 458], the EC50 turned out to be 0.199 µM.

`Cc1cc(N2CC(F)(F)C2)cnc1-c1cc(C(=O)Nc2cc(Cl)cc(NS(C)(=O)=O)c2)cn1C` [Example 461]: the EC50 is 0.158 µM.

For the compound `Cc1sc(C(=O)Nc2cc(Cl)cc(NS(C)(=O)=O)c2)cc1-c1ncc(N2CCC3(CC2)CC3)cc1F` [Example 467], the 50% effective concentration (EC50) came out at 0.164 µM.

Turning to `Cn1cc(C(=O)Nc2cc(Cl)cc(NS(C)(=O)=O)c2)cc1-c1ncc(N2CCC3(CC2)CC3)cc1F` [Example 468], the EC50 worked out at 0.269 µM.

Turning to `Cn1cc(C(=O)Nc2cc(Cl)cc(NS(C)(=O)=O)c2)cc1-c1ncc(N2CCC(C(F)(F)F)CC2)cc1F` [Example 472], the EC50 turned out to be 0.127 µM.

For `Cc1sc(C(=O)Nc2cc(Cl)cc(NS(C)(=O)=O)c2)cc1-c1ncc(N2CCC(C(F)(F)F)CC2)cc1F` [Example 481], the EC50 was 0.128 µM.

With `CS(=O)(=O)Nc1cc(Cl)cc(NC(=O)c2cc(-c3ccc(N4CC(F)(F)C4)cn3)cs2)c1` [Example 487], the EC50 was found to be 0.654 µM.

Turning to `CS(=O)(=O)Nc1cc(Cl)cc(NC(=O)c2cc(-c3ncc(N4CC(F)(F)C4)cc3F)cs2)c1` [Example 488], the concentration for a half-maximal effect (EC50) worked out at 0.285 µM.

Take `Cn1cc(C(=O)Nc2cc(Cl)cc(NS(C)(=O)=O)c2)cc1-c1ccc(N2CCC3(C2)CC3(F)F)cn1` (stereo not drawn) [Example 495]: the 50% effective concentration (EC50) amounted to 0.142 µM.

`Cn1cc(C(=O)Nc2cc(Cl)cc(NS(C)(=O)=O)c2)cc1-c1ccc(N2CC3(C2)CC(F)(F)C3)cn1` [Example 498]: the EC50 was determined as 0.131 µM.

Consider `Cc1sc(C(=O)Nc2cc(Cl)cc(NS(C)(=O)=O)c2)cc1-c1ncc(F)cc1N1CCS(=O)(=O)CC1` [Example 503], for which the EC50 is 9.03 µM.

Turning to `CC(=O)N1CCN(c2cc(F)cnc2-c2cc(C(=O)Nc3cc(Cl)cc(NS(C)(=O)=O)c3)sc2C)CC1` [Example 504], the EC50 turned out to be 6.86 µM.

Consider `COC1CCN(c2cc(F)cnc2-c2cc(C(=O)Nc3cc(Cl)cc(NS(C)(=O)=O)c3)sc2C)C1` (stereo not drawn) [Example 505], for which the half-maximal effective concentration (EC50) worked out at 0.219 µM.

Turning to `Cc1sc(C(=O)Nc2cc(Cl)cc(NS(C)(=O)=O)c2)cc1-c1ncc(F)cc1N1CCN(S(C)(=O)=O)CC1` [Example 506], the EC50 worked out at 0.725 µM.

`Cc1sc(C(=O)Nc2cc(Cl)cc(NS(C)(=O)=O)c2)cc1-c1ncc(F)cc1N1CCC2(CC1)CC2` [Example 507]: the EC50 came to 1.86 µM.

Consider `CC(C)Oc1cc(N2CC(F)(F)C2)cnc1-c1cc(C(=O)Nc2cc(Cl)cc(NS(C)(=O)=O)c2)cn1C` [Example 513], for which the EC50 turned out to be 0.133 µM.

Consider `Cn1cc(C(=O)Nc2cc(Cl)cc(NS(C)(=O)=O)c2)cc1-c1ccc(N2CC(S(C)(=O)=O)C2)cn1` [Example 519], for which the EC50 came to 0.191 µM.

As to `Cc1sc(C(=O)Nc2cc(Cl)cc(NS(=O)(=O)CCO)c2)cc1-c1ncc(N2CC(C(F)(F)F)C2)cc1F` [Example 529], the EC50 was 0.253 µM.

Consider `Cn1cc(C(=O)Nc2cc(Cl)cc(NS(=O)(=O)C3CC3)c2)cc1-c1ccc(N2CC(F)(F)C2)cn1` [Example 530], for which the concentration giving a half-maximal response (EC50) is more than 10 µM.

`CCCS(=O)(=O)Nc1cc(Cl)cc(NC(=O)c2cc(-c3ccc(N4CC(F)(F)C4)cn3)n(C)c2)c1` [Example 531]: the concentration giving a half-maximal response (EC50) is more than 10 µM.

With `CCS(=O)(=O)Nc1cc(Cl)cc(NC(=O)c2cc(-c3ncc(F)cn3)n(C)c2)c1` [Example 542], the EC50 worked out at 0.307 µM.

For `CCS(=O)(=O)Nc1cc(Cl)cc(NC(=O)c2cc(-c3ncc(F)cc3F)n(C)c2)c1` [Example 543], the concentration giving a half-maximal response (EC50) stood at 0.183 µM.

As to `Cn1cc(C(=O)Nc2cc(Cl)cc(NS(C)(=O)=O)c2)cc1-c1ncc(F)cc1Cl` [Example 544], the EC50 was determined as 0.538 µM.

For `Cc1cc(F)cnc1-c1cc(C(=O)Nc2cc(Cl)cc(NS(C)(=O)=O)c2)cn1C` [Example 545], the concentration for a half-maximal effect (EC50) was found to be 0.192 µM.

On to `Cn1cc(C(=O)Nc2cc(Cl)cc(NS(C)(=O)=O)c2)cc1-c1cc(N2CC(F)(F)C2)ccn1` [Example 552], for which the concentration giving a half-maximal response (EC50) is 0.238 µM.

In the case of `Cn1cc(C(=O)Nc2cc(Cl)cc(NS(C)(=O)=O)c2)cc1-c1ncc(C(F)(F)F)cc1F` [Example 554], the concentration for a half-maximal effect (EC50) was determined as 0.238 µM.

`Cn1cc(C(=O)Nc2cc(F)cc(NS(C)(=O)=O)c2)cc1-c1ncc(F)cc1F` [Example 558]: the EC50 stood at 2.91 µM.

As for `CCOc1cc(F)cnc1-c1cc(C(=O)Nc2cc(Cl)cc(NS(C)(=O)=O)c2)cn1C` [Example 561], the EC50 came to 0.274 µM.

The same assay, now with this note: Homo sapiens, HCT-116, read-out: DHX9 Cellular Target Engagement EC50 (μM).
With `Cn1cc(C(=O)Nc2cc(Cl)cc(NS(C)(=O)=O)c2)cc1-c1ncc(N2CC[Si](C)(C)CC2)cc1F` [Example 470], the EC50 came out at 0.62 µM.

In the case of `Cc1sc(C(=O)Nc2cc(Cl)cc(NS(C)(=O)=O)c2)cc1-c1ncc(N2CC[Si](C)(C)CC2)cc1F` [Example 473], the EC50 was 0.426 µM.
